Reference: BindingDB's records for doi:10.1016/s0960-894x(03)00389-5 (National Institute On Drug Abuse-Intramural Research Program, 2003)

How the values were obtained:
[1] = Agonistic activity of quinpirole stimulation of mitogenesis in human Dopamine receptor D3 transfected CHO cells
[2] = Agonistic activity of quinpirole stimulation of mitogenesis in human dopamine D3 transfected CHO cells

EC50 [1] [µM] | EC50 [2] [µM] | Compound
> 10 |  | O=C(NC/C=C/CN1CCN(c2cccc(Cl)c2Cl)CC1)c1ccccc1 [N-{(E)-4-[4-(2,3-Dichloro-phenyl)-piperazin-1-yl]-but-2-enyl}-benzamide]
 | > 10 | O=C(NC/C=C\CN1CCN(c2cccc(Cl)c2Cl)CC1)c1ccccc1 [N-{(Z)-4-[4-(2,3-Dichloro-phenyl)-piperazin-1-yl]-but-2-enyl}-benzamide]
